Experimental findings from patent US20060241108A1, “Substituted phenoxazines and acridones as inhibitors of AKT” (St. Jude Children's Research Hospital, priority 2005, published 2006) are described below.

Read-outs that look alike come from different tables or passages of the source. Marks after values point to notes of the source that are not given here.

A word on the IC50: it is the concentration at which inhibition is half-maximal. Lower therefore signals higher potency.

The test system of data set [1] is Rh18 cells. The conditions noted are these: 7.5 µM.
Description: (§1) Determination of apoptosis. An ApoAlert™ Annexin V-FITC Apoptosis kit (available from Clontech, Palo Alto, Calif.) can be used to evaluate the extent of apoptosis within cell populations. Cells (Rh1: 350,000 per 75-cm^2 flask; Rh18: 800,000 per 75-cm^2 flask; or Rh30: 500,000 per 75-cm^2 flask) are preferably grown overnight in complete medium. On day 1, cells are treated with DMSO (0.1%; vehicle control) or with a test compound (e.g., a phenoxazine or acridone compound). After 4 days, the cells are trypsinized, washed with PBS, and resuspended in 200 μl of binding buffer. Cells are then incubated with 10 μl of annexin V-FITC (final concentration, 1 μg/ml) and 500 ng of propidium iodide in a final volume of 410 μl. Cells are preferably incubated at room temperature in the dark for ten minutes before flow cytometric analysis with an FACSCalibur™ Flow Cytometry System (Becton Dickinson, San Jose, Calif.).
(§2) For instance, Rh1, Rh18 and/or Rh30 cells can be grown in complete medium with 0.1% DMSO (as a negative control) or with one or more test compounds, e.g., any of the phenoxazine compounds listed in Table I, above, including but not limited to the compounds 10B, 11B, 13B, 14B or 15B. […] Cells are then harvested, and the extent of apoptosis evaluated, e.g., by an ApoAlert™ (Clontech, Palo Alto, Calif.) flow cytometric assay.
The subject of data set [2] is Rh30 cells. As to conditions: 7.5 µM.
Description: as §1, §2
Data set [3] concerns the target T1, recombinant p-110 gamma enzyme (Homo sapiens, UniProt P48736).
T1 construct: purchased AG Scientific, San Diego, Calif
Nature of the data set: PI 3-kinase assay in vitro. As to conditions: 5 μM; phosphatidylinositol substrate, [γ32P]-ATP, TLC. The class given is biochemical.
Description: PI 3-kinase assay. […] 10 μg of phosphatidylinositol (available from Sigma, St. Louis, Mo.) can then be added to each sample, and the incubation preferably continues on ice for an additional 15 minutes. ATP (final concentration 25 μM containing 30 μCi of [γ^32p]-ATP) can be added to each sample, and the reaction mixtures incubated at 37° C. for 10 minutes. Reactions can be terminated by adding 20 μl of 6 N hydrochloric acid. The sample is preferably vortexed, and lipids extracted into 300 μl of MeOH:CHCl3 (1:1) mixture. After mixing gently and spinning at 10,000×g for 5 minutes, 50 μl of the organic phase is preferably spotted onto a silica coated thin layer chromatography (TLC) plate (available from EMD, La Jolla, Calif.) and developed using a solvent system containing CHCl3:MeOH:H2O:NH4OH (60:47:11.3:2). The TLC plate can then be allowed to dry, and the bands analyzed using a Storm 860 phosphoimager (available from Amersham Biosciences, Sunnyvale, Calif.).
Lipids in such assays can be resolved by thin layer chromatography (TLC), and incorporated radiolabel quantitated using a phosphoimager.

Data set [4] concerns Rh1 cells. In words: Cell growth inhibition, Rh1 cells. In kind it is cell-based, human. The conditions noted are these: complete medium, six days, nuclei counted. Here is the method: Cell lines and growth conditions. The human cell lines Rh1, Rh18, and Rh30 (ATCC Deposit # CRL 2061) have been described, e.g., by Hazelton et al. Cancer Res 1987;47:4501-4507 and Hosoi et al. Cancer Res. 1999;59:886-894. Rh1, Rh18 and Rh30 cells can each be grown in antibiotic free RPMI-1640 medium (available from BioWhittaker, Walkersville, Md.), supplemented with 10% fetal bovine serum (available from HyClone Laboratories, Logan, Utah) and 2 mM L-glutamine (available from BioWhittaker, Walkersville, Md.) at 37° C. in an atmosphere of 5% CO2. For serum free experiments, cells can be cultured in modified N2E (MN2E) medium (DMEM/F-12, 1:1 mixture) (Sigma, St. Louis, Mo.) supplemented with 1 μg/ml human holo transferrin, 30 nM sodium selenite, 20 nM progesterone, 100 μM putrescine, 30 nM vitamin E phosphate, and 50 μM ethanolamine. […]
Cell growth inhibition. […] Growth can be assessed after lysing cells, and counting nuclei. […]
The effect(s) of compounds, including phenoxazine compounds such as those listed in Table I, above, on cell growth can be evaluated in cell-based assays such as the exemplary assays described here. Rh1, Rh18 and/or Rh30 cells grown in complete medium can be exposed to graded concentrations of test compound (e.g., from 0.1 to 25 μM) for six days, at which time the cells can be lysed and their growth assessed by counting nuclei. […]

Data set [5] concerns AKT. In words: Translocation of AKT from cytoplasm to nucleus in Rh1 cells, confocal microscopy. The class given is cell-based, human. The conditions noted are these: 5 μM, 1 hour, IGF-1 10 ng/ml 20 minutes. How it is done: Translocation of AKT in Rh1 cells. Rh1 cells (2×10^5 per chamber) can be grown on 2-well glass chamber slides (available from Falcon, Franklin Lakes, N.J.) in serum-free medium containing fibronectin (10 μg/ml). Preferably after twenty hours, the cells are exposed to DMSO (0.1%, vehicle control) or test compound (e.g., 5 μM of phenoxazine or acridone compound) for one hour and then stimulated with IGF-I (10 ng/ml) for 20 minutes. Cells are preferably washed twice with PBS and fixed in 4% formaldehyde for 30 minutes at room temperature. The samples are then rinsed twice with PBS and permeabilized with 1% Triton X-100 for five minutes at room temperature. After rinsing twice with PBS, the cells are incubated with an anti-AKT antibody (available from Rockland, West Chester, Pa.) (1:50 dilution) for 45 minutes at 37° C. […] After rinsing twice with PBS, the slides can be mounted in media containing TOPRO-3 (also available from Molecular Probes) and analyzed by routine confocal microscopy.
Upon activation, AKT translocates to the nucleus (see, e.g., Biggs et al. Proc. Natl. Acad. Sci. USA 1999;96:7421-7426; Brownawell et al. Mol. Cell. Biol. 2001;21:3534-3546; Brunet et al. Cell 1999;96:857-868; and Rena et al. J. Biol. Chem. 1999;274:17179-17183). […] Cellular localization of AKT may then be assessed, e.g. by confocal microscopy.

The subject of data set [6] is Rh1 cells. As to conditions: 6.5 µM.
Description: as §1, §2
Data set [7] concerns Rh1 cells. Nature of the data set: Determination of apoptosis (Annexin V-FITC/propidium iodide flow cytometry), Rh1 cells. As to conditions: Rh1, 6.5 μM, four days, n = 3. In general terms: In flow cytometry, cells or beads pass a laser one at a time.
Description: as §1, §2

T1 sequence (P48736 whole entry, species assumed): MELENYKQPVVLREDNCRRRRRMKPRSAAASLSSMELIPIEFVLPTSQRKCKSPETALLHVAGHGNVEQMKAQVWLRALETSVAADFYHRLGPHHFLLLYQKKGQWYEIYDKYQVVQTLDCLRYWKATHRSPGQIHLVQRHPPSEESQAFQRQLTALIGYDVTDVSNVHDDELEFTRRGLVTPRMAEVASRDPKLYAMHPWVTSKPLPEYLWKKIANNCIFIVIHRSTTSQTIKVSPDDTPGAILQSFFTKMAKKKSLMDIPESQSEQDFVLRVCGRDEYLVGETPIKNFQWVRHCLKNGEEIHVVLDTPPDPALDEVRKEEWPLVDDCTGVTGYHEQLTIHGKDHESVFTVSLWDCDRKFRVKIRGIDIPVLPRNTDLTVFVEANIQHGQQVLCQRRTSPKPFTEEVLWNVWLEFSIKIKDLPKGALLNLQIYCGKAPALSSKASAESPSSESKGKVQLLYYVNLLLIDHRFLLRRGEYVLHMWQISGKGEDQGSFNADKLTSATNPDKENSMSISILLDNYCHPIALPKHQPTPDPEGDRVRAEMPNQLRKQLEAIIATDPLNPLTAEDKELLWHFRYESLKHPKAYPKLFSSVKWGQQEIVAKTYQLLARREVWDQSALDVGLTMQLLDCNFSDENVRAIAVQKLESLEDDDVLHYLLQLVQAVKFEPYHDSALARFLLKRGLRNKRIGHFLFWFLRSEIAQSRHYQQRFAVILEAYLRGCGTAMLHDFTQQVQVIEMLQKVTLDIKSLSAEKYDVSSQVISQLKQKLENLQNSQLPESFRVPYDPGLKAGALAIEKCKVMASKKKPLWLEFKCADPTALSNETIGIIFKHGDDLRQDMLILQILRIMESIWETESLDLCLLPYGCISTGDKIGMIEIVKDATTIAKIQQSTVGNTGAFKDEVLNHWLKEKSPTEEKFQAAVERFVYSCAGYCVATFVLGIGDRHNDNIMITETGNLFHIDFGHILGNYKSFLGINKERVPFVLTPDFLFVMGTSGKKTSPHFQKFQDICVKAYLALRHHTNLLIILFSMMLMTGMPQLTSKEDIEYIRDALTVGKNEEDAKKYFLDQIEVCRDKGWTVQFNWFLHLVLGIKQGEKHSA

Take “10-[4′-[(β-hydroxyethyl)piperazino]butyl]-2-chlorophenoxazine [Compound 15B]”: the “Percentage of cells ± SD, Viable” value in data set [1] is listed as 67.00 ± 7.48%; in data set [2] it was 11.00 ± 2.16^d %; in data set [6] it was 23.33 ± 8.66^d %. Moreover, the “PI 3-kinase activity” value in data set [3] is “comparable to the untreated sample”. In data set [4], this compound registered an IC50 of 2000 nM. Also, the “nuclear localization of AKT” value in data set [5] is listed as “block in nuclear localization occurs”.
With `CCN(CC)CCCCN1c2ccccc2Oc2ccc(Cl)cc21` [Compound 10B, 10-[4′-(N-diethylamino)butyl]-2-chlorophenoxazine], the “PI 3-kinase activity” value in data set [3] is reported as “comparable to the untreated sample”. The same compound showed an IC50 in data set [4] of 2000 nM. The “nuclear localization of AKT” value in data set [5] is given as “block in nuclear localization occurs”. Also, the “Percentage of cells ± SD, Viable” value in data set [7] came to 47.70 ± 7.90%.
